Data: patent US9493466B2, “Treatment of cancer with TOR kinase inhibitors” (Signal Pharmaceuticals, LLC, priority 2011, dated 2016)

Experiments:
Assay in all cases: Apoptosis assay for NHL lines (Caspase 3/7-Glo)
Format in all cases: cell-based
U-2940 = conditions: U-2940, NHL DLBCL, 24 hours, n = 1
Experimental: (§1) Apoptosis Assay for NHL Lines. Prior to testing, cells were grown and expanded in culture flasks to provide sufficient amounts of starting material. Cells were then diluted to their desired densities and added directly to compound-spotted 384-well plates. Cells were allowed to grow for 24 hours in 5% CO2 at 37° C. The apoptotic response was assessed by quantifying the activities of caspase 3 and caspase 7 (Caspase 3/7-Glo) in treated cells and control cells at the 24-hour time point. All data was normalized and represented as a value relative to the DMSO-treated cells. Results were then expressed as CalX, which is the minimum compound concentration required to double the levels of caspase 3/7 relative to those of the DMSO-treated cells during their treatment period.

OCI-LY-19 = conditions: OCI-LY-19, NHL DLBCL, 24 hours, n = 1
Experimental: as §1

SU-DHL-10 = conditions: SU-DHL-10, NHL DLBCL, 24 hours, n = 1
Experimental: as §1

RIVA = conditions: NHL DLBCL, 24 hours, n = 1
Experimental: as §1

MOLM-13 = conditions: MOLM-13, Leukemia M-AML, 24 hours, n = 1
Experimental: as §1

JVM-13 = conditions: JVM-13, NHL MCL, 24 hours, n = 1
Experimental: as §1

OCI-LY-7 = conditions: OCI-LY-7, NHL DLBCL, 24 hours, n = 1
Experimental: as §1

Granta-519 = conditions: Granta-519, NHL MCL, 24 hours, n = 1
Experimental: as §1

KG-1 = conditions: KG-1, Leukemia M-AML, 24 hours, n = 1
Experimental: as §1

SU-DHL-1 = conditions: SU-DHL-1, ALCL T-cell, 24 hours, n = 1
Experimental: as §1

Pfeiffer = conditions: NHL DLBCL, 24 hours, n = 1
Experimental: as §1

KARPAS-299 = conditions: KARPAS-299, ALCL T-cell, 24 hours, n = 1
Experimental: as §1

SU-DHL-4 = conditions: SU-DHL-4, NHL DLBCL, 24 hours, n = 1
Experimental: as §1

RC-K8 = conditions: RC-K8, NHL DLBCL, 24 hours, n = 1
Experimental: as §1

WSU-DLCL2 = conditions: WSU-DLCL2, NHL DLBCL, 24 hours, n = 1
Experimental: as §1

WSU-FSCCL = conditions: NHL FL, 24 hours, n = 1
Experimental: as §1

KARPAS-1106P = conditions: NHL DLBCL, 24 hours, n = 1
Experimental: as §1

KASUMI-1 = conditions: KASUMI-1, Leukemia M-AML, 24 hours, n = 1
Experimental: as §1

HT = conditions: NHL DLBCL, 24 hours, n = 1
Experimental: as §1

SU-DHL-16 = conditions: SU-DHL-16, NHL DLBCL, 24 hours, n = 1
Experimental: as §1

U-2932 = conditions: U-2932, NHL DLBCL, 24 hours, n = 1
Experimental: as §1

REC-1 = conditions: REC-1, NHL MCL, 24 hours, n = 1
Experimental: as §1

JVM-2 = conditions: JVM-2, NHL MCL, 24 hours, n = 1
Experimental: as §1

JEKO-1 = conditions: JEKO-1, NHL MCL, 24 hours, n = 1
Experimental: as §1

OCI-LY-10 = conditions: OCI-LY-10, NHL DLBCL, 24 hours, n = 1
Experimental: as §1

THP-1 = conditions: THP-1, Leukemia M-AML, 24 hours, n = 1
Experimental: as §1

Toledo = conditions: NHL DLBCL, 24 hours, n = 1
Experimental: as §1

SU-DHL-8 = conditions: SU-DHL-8, NHL DLBCL, 24 hours, n = 1
Experimental: as §1

KARPAS-422 = conditions: KARPAS-422, NHL DLBCL, 24 hours, n = 1
Experimental: as §1

HL-60 = conditions: HL-60, Leukemia M-AML, 24 hours, n = 1
Experimental: as §1

Mino = conditions: NHL MCL, 24 hours, n = 1
Experimental: as §1

SU-DHL-5 = conditions: SU-DHL-5, NHL DLBCL, 24 hours, n = 1
Experimental: as §1

Farage = conditions: NHL DLBCL, 24 hours, n = 1
Experimental: as §1

CO[C@H]1CC[C@H](N2C(=O)CNc3ncc(-c4ccc(C(C)(C)O)nc4)nc32)CC1 [Compound 1, 7-(6-(2-hydroxypropan-2-yl)pyridin-3-yl)-1-((1r,4r)-4-methoxycyclohexyl)-3,4-dihydropyrazino-[2,3-b]pyrazin-2(1H)-one]
CalX (minimum concentration to double caspase 3/7) (U-2940): 0.43 | CalX (minimum concentration to double caspase 3/7) (OCI-LY-19): 1.13 | CalX (minimum concentration to double caspase 3/7) (SU-DHL-10): 0.54 | Apoptotic (RIVA): N/Y | CalX (minimum concentration to double caspase 3/7) (RIVA): 3.84 | Apoptotic (MOLM-13): N/Y | CalX (minimum concentration to double caspase 3/7) (MOLM-13): 7.24 | Apoptotic (JVM-13): N/Y | CalX (minimum concentration to double caspase 3/7) (JVM-13): 4.27 | CalX (minimum concentration to double caspase 3/7) (OCI-LY-7): 0.07 | CalX (minimum concentration to double caspase 3/7) (Granta-519): 10 | CalX (minimum concentration to double caspase 3/7) (KG-1): 10 | CalX (minimum concentration to double caspase 3/7) (SU-DHL-1): 10 | CalX (minimum concentration to double caspase 3/7) (Pfeiffer): 10 | Apoptotic (KARPAS-299): N/Y | CalX (minimum concentration to double caspase 3/7) (KARPAS-299): 9.61 | Apoptotic (SU-DHL-4): N/Y | CalX (minimum concentration to double caspase 3/7) (SU-DHL-4): 5.15 | Apoptotic (RC-K8): N/Y | CalX (minimum concentration to double caspase 3/7) (RC-K8): 6.51 | CalX (minimum concentration to double caspase 3/7) (WSU-DLCL2): 0.19 | CalX (minimum concentration to double caspase 3/7) (WSU-FSCCL): 0.16 | CalX (minimum concentration to double caspase 3/7) (KARPAS-1106P): 0.25 | Apoptotic (KASUMI-1): N/Y | CalX (minimum concentration to double caspase 3/7) (KASUMI-1): 6.52 | Apoptotic (HT): N/Y | CalX (minimum concentration to double caspase 3/7) (HT): 5.62 | CalX (minimum concentration to double caspase 3/7) (SU-DHL-16): 0.11 | CalX (minimum concentration to double caspase 3/7) (U-2932): 2.04 | CalX (minimum concentration to double caspase 3/7) (REC-1): 0.79 | Apoptotic (JVM-2): N/Y | CalX (minimum concentration to double caspase 3/7) (JVM-2): 3.2 | CalX (minimum concentration to double caspase 3/7) (JEKO-1): 0.56 | CalX (minimum concentration to double caspase 3/7) (OCI-LY-10): 0.7 | Apoptotic (THP-1): N/Y | CalX (minimum concentration to double caspase 3/7) (THP-1): 7.57 | Apoptotic (Toledo): N/Y | CalX (minimum concentration to double caspase 3/7) (Toledo): 3.48 | CalX (minimum concentration to double caspase 3/7) (SU-DHL-8): 0.07 | Apoptotic (KARPAS-422): N/Y | CalX (minimum concentration to double caspase 3/7) (KARPAS-422): 5.16 | CalX (minimum concentration to double caspase 3/7) (HL-60): 10 | CalX (minimum concentration to double caspase 3/7) (Mino): 0.53 | CalX (minimum concentration to double caspase 3/7) (SU-DHL-5): 0.59 | CalX (minimum concentration to double caspase 3/7) (Farage): 0.47
